Measurements as given in PubChem BioAssay AID2060891 (Molecular Pharmacology Branch, DTP, NCI, 2025).
Blank lines part the entries; values can stand above or below the compound they belong to.

System: K98450-129-R-PDC complex spheroid growth, percent test/control
Assay: Anticancer human tumor K98450-129-R-PDC patient-derived colon adenocarcinoma cell line growth inhibition [RAS]
Conditions: for IC50: curve of first compound; for viability, T/C: stronger effect = lower value
Outline: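 Agents were tested in combination matrices in half-log decrements from a top concentration at or near clinical Cmax (10 microM if undetermined). Targets were multi-cell spheroids of tumour lines plus HUVEC and MSC stromal cells.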

[1] = second compound 0.000949 µM, first compound 0.0316 µM
[2] = second compound 0.000949 µM, first compound 0.1 µM
[3] = second compound 0.000949 µM, first compound 0.316 µM
[4] = second compound 0.000949 µM, first compound 1 µM
[5] = second compound 0.003 µM, first compound 0.0316 µM
[6] = second compound 0.003 µM, first compound 0.1 µM
[7] = second compound 0.003 µM, first compound 0.316 µM
[8] = second compound 0.003 µM, first compound 1 µM
[9] = second compound 0.00949 µM, first compound 0.0316 µM
[10] = second compound 0.00949 µM, first compound 0.1 µM
[11] = second compound 0.00949 µM, first compound 0.316 µM
[12] = second compound 0.00949 µM, first compound 1 µM
[13] = second compound 0.03 µM, first compound 0.0316 µM
[14] = second compound 0.03 µM, first compound 0.1 µM
[15] = second compound 0.03 µM, first compound 0.316 µM
[16] = second compound 0.03 µM, first compound 1 µM
[17] = second compound 0.0949 µM, first compound 0.0316 µM
[18] = second compound 0.0949 µM, first compound 0.1 µM
[19] = second compound 0.0949 µM, first compound 0.316 µM
[20] = second compound 0.0949 µM, first compound 1 µM
[21] = second compound 0.3 µM, first compound 0.0316 µM
[22] = second compound 0.3 µM, first compound 0.1 µM
[23] = second compound 0.3 µM, first compound 0.316 µM
[24] = second compound 0.3 µM, first compound 1 µM
[25] = second compound 0.000949 µM, first compound 3.16 µM
[26] = second compound 0.000949 µM, first compound 10 µM
[27] = second compound 0.003 µM, first compound 3.16 µM
[28] = second compound 0.003 µM, first compound 10 µM
[29] = second compound 0.00949 µM, first compound 3.16 µM
[30] = second compound 0.00949 µM, first compound 10 µM
[31] = second compound 0.03 µM, first compound 3.16 µM
[32] = second compound 0.03 µM, first compound 10 µM
[33] = second compound 0.0949 µM, first compound 3.16 µM
[34] = second compound 0.0949 µM, first compound 10 µM
[35] = second compound 0.3 µM, first compound 3.16 µM
[36] = second compound 0.3 µM, first compound 10 µM
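Further: spheroids exposed to agents for seven days before the viability readout.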
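Wherever viability, T/C is given: luminescence used as a proxy for viable cell amount.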

- IC50 (second compound 0.000949 µM): 239 nM
- IC50 (second compound 0.003 µM): 13.2 nM
- IC50 (second compound 0.00949 µM): < 3.16 nM
- IC50 (second compound 0.03 µM): < 3.16 nM
- IC50 (second compound 0.0949 µM): < 3.16 nM
- IC50 (second compound 0.3 µM): < 3.16 nM
Structure (SMILES): CCN1CCN(Cc2ccc(Nc3ncc(F)c(-c4cc(F)c5nc(C)n(C(C)C)c5c4)n3)nc2)CC1 + CCn1c(-c2cccnc2C(C)OC)c2c3cc(ccc31)N1CCOC(CC(NC(=O)C(C(C)C)N(C)C(=O)C3(F)CCN(C(=O)C#CC(C)(C)N(C)C)CC3)C(=O)N3CCCC(N3)C(=O)OCC(C)(C)C2)C1
- viability, T/C (second compound 0.000949 µM, first compound 0.00316 µM): 72.8%
- viability, T/C (second compound 0.000949 µM, first compound 0.01 µM): 68.7%
- viability, T/C [1]: 70.3%
- viability, T/C [2]: 54.4%
- viability, T/C [3]: 44.9%
- viability, T/C [4]: 52.2%
- viability, T/C (second compound 0.003 µM, first compound 0.00316 µM): 60%
- viability, T/C (second compound 0.003 µM, first compound 0.01 µM): 52.6%
- viability, T/C [5]: 48.2%
- viability, T/C [6]: 39.2%
- viability, T/C [7]: 43%
- viability, T/C [8]: 47.4%
- viability, T/C (second compound 0.00949 µM, first compound 0.00316 µM): 49.7%
- viability, T/C (second compound 0.00949 µM, first compound 0.01 µM): 41.7%
- viability, T/C [9]: 38.9%
- viability, T/C [10]: 34.5%
- viability, T/C [11]: 36.6%
- viability, T/C [12]: 43.4%
- viability, T/C (second compound 0.03 µM, first compound 0.00316 µM): 37.6%
- viability, T/C (second compound 0.03 µM, first compound 0.01 µM): 37.6%
- viability, T/C [13]: 34.3%
- viability, T/C [14]: 35.3%
- viability, T/C [15]: 43.8%
- viability, T/C [16]: 45.9%
- viability, T/C (second compound 0.0949 µM, first compound 0.00316 µM): 39.6%
- viability, T/C (second compound 0.0949 µM, first compound 0.01 µM): 34.4%
- viability, T/C [17]: 34.5%
- viability, T/C [18]: 32.1%
- viability, T/C [19]: 38.9%
- viability, T/C [20]: 48.8%
- viability, T/C (second compound 0.3 µM, first compound 0.00316 µM): 30.8%
- viability, T/C (second compound 0.3 µM, first compound 0.01 µM): 32.1%
- viability, T/C [21]: 32.1%
- viability, T/C [22]: 28.6%
- viability, T/C [23]: 36.1%
- viability, T/C [24]: 41.8%

- IC50 (second compound 0.000949 µM): 365 nM
- IC50 (second compound 0.003 µM): 41.5 nM
- IC50 (second compound 0.00949 µM): < 31.6 nM
- IC50 (second compound 0.03 µM): < 31.6 nM
- IC50 (second compound 0.0949 µM): < 31.6 nM
- IC50 (second compound 0.3 µM): < 31.6 nM
Structure (SMILES): Cc1nc(N2CCC3(CC2)COC(C)C3N)c(CO)nc1Sc1ccnc(N)c1Cl (stereo unspecified) + CCn1c(-c2cccnc2C(C)OC)c2c3cc(ccc31)N1CCOC(CC(NC(=O)C(C(C)C)N(C)C(=O)C3(F)CCN(C(=O)C#CC(C)(C)N(C)C)CC3)C(=O)N3CCCC(N3)C(=O)OCC(C)(C)C2)C1
- viability, T/C [1]: 71.8%
- viability, T/C [2]: 64.7%
- viability, T/C [3]: 54.1%
- viability, T/C [4]: 27.5%
- viability, T/C [25]: 12.1%
- viability, T/C [26]: 9.55%
- viability, T/C [5]: 53.4%
- viability, T/C [6]: 39%
- viability, T/C [7]: 16.9%
- viability, T/C [8]: 10.4%
- viability, T/C [27]: 8.15%
- viability, T/C [28]: 7.47%
- viability, T/C [9]: 32.7%
- viability, T/C [10]: 21.6%
- viability, T/C [11]: 12.3%
- viability, T/C [12]: 8.57%
- viability, T/C [29]: 8.2%
- viability, T/C [30]: 6.2%
- viability, T/C [13]: 26.1%
- viability, T/C [14]: 14.9%
- viability, T/C [15]: 10.7%
- viability, T/C [16]: 10.1%
- viability, T/C [31]: 6.29%
- viability, T/C [32]: 6.11%
- viability, T/C [17]: 20.9%
- viability, T/C [18]: 16%
- viability, T/C [19]: 8.78%
- viability, T/C [20]: 8.48%
- viability, T/C [33]: 8.98%
- viability, T/C [34]: 6.05%
- viability, T/C [21]: 21.7%
- viability, T/C [22]: 14.2%
- viability, T/C [23]: 10.3%
- viability, T/C [24]: 8.27%
- viability, T/C [35]: 8.02%
- viability, T/C [36]: 6.57%

- IC50 (second compound 0.000949 µM): < 31.6 nM
- IC50 (second compound 0.003 µM): < 31.6 nM
- IC50 (second compound 0.00949 µM): < 31.6 nM
- IC50 (second compound 0.03 µM): < 31.6 nM
- IC50 (second compound 0.0949 µM): < 31.6 nM
- IC50 (second compound 0.3 µM): < 31.6 nM
Structure (SMILES): NC1c2ccccc2OC12CCN(c1cnc3c(N4CCCc5ncccc54)n[nH]c3n1)CC2 (stereo unspecified) + CCn1c(-c2cccnc2C(C)OC)c2c3cc(ccc31)N1CCOC(CC(NC(=O)C(C(C)C)N(C)C(=O)C3(F)CCN(C(=O)C#CC(C)(C)N(C)C)CC3)C(=O)N3CCCC(N3)C(=O)OCC(C)(C)C2)C1
- viability, T/C [1]: 44.8%
- viability, T/C [2]: 23.5%
- viability, T/C [3]: 11%
- viability, T/C [4]: 7.16%
- viability, T/C [25]: 6.94%
- viability, T/C [26]: 8.73%
- viability, T/C [5]: 21.5%
- viability, T/C [6]: 12.4%
- viability, T/C [7]: 7.71%
- viability, T/C [8]: 6.76%
- viability, T/C [27]: 6.52%
- viability, T/C [28]: 7.13%
- viability, T/C [9]: 15.6%
- viability, T/C [10]: 9.32%
- viability, T/C [11]: 7.2%
- viability, T/C [12]: 6.45%
- viability, T/C [29]: 6.54%
- viability, T/C [30]: 7.85%
- viability, T/C [13]: 12.8%
- viability, T/C [14]: 9.35%
- viability, T/C [15]: 7.81%
- viability, T/C [16]: 6.41%
- viability, T/C [31]: 6.04%
- viability, T/C [32]: 6.71%
- viability, T/C [17]: 11%
- viability, T/C [18]: 8.32%
- viability, T/C [19]: 6.62%
- viability, T/C [20]: 6.26%
- viability, T/C [33]: 5.17%
- viability, T/C [34]: 7.13%
- viability, T/C [21]: 9.99%
- viability, T/C [22]: 6.92%
- viability, T/C [23]: 6.83%
- viability, T/C [24]: 6.04%
- viability, T/C [35]: 5.35%
- viability, T/C [36]: 6.26%
